# Assay results taken from ChEMBL document CHEMBL5370537, “Aporphines: A privileged scaffold in CNS drug discovery” (Eur J Med Chem, 2023).
# Tests used:
# [1] = biological target: Cholinesterase (Equus caballus, UniProt P81908); assay: Inhibition of equine serum BuChE using BTCI as substrate pre-incubated for 10 mins followed by substrate addition measured after 5 mins by microplate reader analysis
# [2] = system: BV-2; assay: Inhibition of NO production in LPS-induced mouse BV-2 cells incubated for 24 hrs by Griess reagent based microplate reader analysis; assay type: functional, cell-based; conditions: BV-2, 24 h
# [3] = biological target: Acetylcholinesterase (Electrophorus electricus, UniProt O42275); assay: Inhibition of Electrophorus electricus AChE using ATCI as substrate pre-incubated for 10 mins followed by substrate addition measured after 5 mins by microplate reader analysis
# [4] = system: BV-2; assay: Potency index, ratio of minocycline IC50 to test compound IC50 for inhibition of NO production in LPS-induced mouse BV-2 cells incubated for 24 hrs by Griess reagent based microplate reader analysis; assay type: functional
# [5] = system: SH-SY5Y; assay: Neuroprotective activity against human SH-SY5Y cells assessed as increase in BDNF level measured after 48 hrs; assay type: functional, cell-based
# [6] = biological target: T1, Alpha-1A adrenergic receptor (Homo sapiens) (UniProt P35348); assay: Binding affinity to human alpha1A adrenergic receptors transfected in HEK293 cells assessed as antagonist dissociation constant measured after 1 hrs; assay type: cell-based; conditions: filed as antagonist
# T1 sequence (whole entry): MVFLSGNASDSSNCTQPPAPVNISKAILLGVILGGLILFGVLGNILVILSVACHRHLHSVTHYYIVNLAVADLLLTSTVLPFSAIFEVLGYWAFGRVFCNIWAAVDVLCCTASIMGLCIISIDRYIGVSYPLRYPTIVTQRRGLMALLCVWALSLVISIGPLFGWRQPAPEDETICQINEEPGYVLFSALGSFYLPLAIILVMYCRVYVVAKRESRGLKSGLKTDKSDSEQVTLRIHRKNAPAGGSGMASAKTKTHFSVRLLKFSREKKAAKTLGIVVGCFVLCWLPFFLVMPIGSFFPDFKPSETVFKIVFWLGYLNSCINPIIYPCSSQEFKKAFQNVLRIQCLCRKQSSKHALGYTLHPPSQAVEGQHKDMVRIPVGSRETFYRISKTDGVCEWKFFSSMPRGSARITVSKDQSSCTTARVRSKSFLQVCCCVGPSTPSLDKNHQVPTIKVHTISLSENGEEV
# [7] = biological target: 5-hydroxytryptamine receptor 2B (Homo sapiens, UniProt P41595); assay: Binding affinity to human 5-HT2B transfected in HEK293 cells assessed as antagonist dissociation constant measured after 1 hrs; assay type: cell-based; conditions: filed as antagonist
# [8] = biological target: T2, Alpha-1B adrenergic receptor (Homo sapiens) (UniProt P35368); assay: Binding affinity to human alpha1B adrenergic receptors transfected in HEK293 cells assessed as antagonist dissociation constant measured after 1 hrs; assay type: cell-based; conditions: filed as antagonist
# T2 sequence (whole entry): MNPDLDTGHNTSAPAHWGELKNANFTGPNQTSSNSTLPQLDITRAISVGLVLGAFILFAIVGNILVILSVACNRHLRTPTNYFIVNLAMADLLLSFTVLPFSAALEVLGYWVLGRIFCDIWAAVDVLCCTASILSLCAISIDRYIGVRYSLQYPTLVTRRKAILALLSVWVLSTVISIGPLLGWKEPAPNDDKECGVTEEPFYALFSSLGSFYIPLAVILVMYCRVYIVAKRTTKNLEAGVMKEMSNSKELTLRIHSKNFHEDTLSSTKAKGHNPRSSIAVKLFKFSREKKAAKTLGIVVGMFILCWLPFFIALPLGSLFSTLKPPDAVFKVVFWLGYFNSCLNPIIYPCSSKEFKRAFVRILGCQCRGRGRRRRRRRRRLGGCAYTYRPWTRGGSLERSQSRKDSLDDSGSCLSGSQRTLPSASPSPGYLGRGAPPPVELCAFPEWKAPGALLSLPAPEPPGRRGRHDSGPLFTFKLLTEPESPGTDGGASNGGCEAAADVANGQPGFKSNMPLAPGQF
# [9] = biological target: T3, Alpha-1D adrenergic receptor (Homo sapiens) (UniProt P25100); assay: Binding affinity to human alpha1D adrenergic receptors transfected in HEK293 cells assessed as antagonist dissociation constant measured after 1 hrs; assay type: cell-based; conditions: filed as antagonist
# T3 sequence (whole entry): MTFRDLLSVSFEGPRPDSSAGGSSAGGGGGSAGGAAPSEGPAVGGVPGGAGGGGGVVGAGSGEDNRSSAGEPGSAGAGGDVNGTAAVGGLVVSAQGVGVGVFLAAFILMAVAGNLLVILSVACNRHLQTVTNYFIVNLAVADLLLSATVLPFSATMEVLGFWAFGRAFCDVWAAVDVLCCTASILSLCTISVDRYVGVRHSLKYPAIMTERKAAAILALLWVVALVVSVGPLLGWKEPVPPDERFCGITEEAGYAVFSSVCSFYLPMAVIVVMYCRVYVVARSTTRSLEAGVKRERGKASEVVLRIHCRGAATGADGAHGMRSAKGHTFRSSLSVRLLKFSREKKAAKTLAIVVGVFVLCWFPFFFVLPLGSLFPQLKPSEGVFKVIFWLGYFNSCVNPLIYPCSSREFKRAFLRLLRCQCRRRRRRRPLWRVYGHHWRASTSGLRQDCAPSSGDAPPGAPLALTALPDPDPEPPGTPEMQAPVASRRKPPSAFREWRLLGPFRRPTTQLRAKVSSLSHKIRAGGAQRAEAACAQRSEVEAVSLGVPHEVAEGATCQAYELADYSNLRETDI
# [10] = biological target: T4, 5-hydroxytryptamine receptor 2C (Homo sapiens) (UniProt P28335); assay: Binding affinity to human 5-HT2C transfected in HEK293 cells assessed as antagonist dissociation constant measured after 1 hrs; assay type: cell-based; conditions: filed as antagonist
# T4 sequence (whole entry): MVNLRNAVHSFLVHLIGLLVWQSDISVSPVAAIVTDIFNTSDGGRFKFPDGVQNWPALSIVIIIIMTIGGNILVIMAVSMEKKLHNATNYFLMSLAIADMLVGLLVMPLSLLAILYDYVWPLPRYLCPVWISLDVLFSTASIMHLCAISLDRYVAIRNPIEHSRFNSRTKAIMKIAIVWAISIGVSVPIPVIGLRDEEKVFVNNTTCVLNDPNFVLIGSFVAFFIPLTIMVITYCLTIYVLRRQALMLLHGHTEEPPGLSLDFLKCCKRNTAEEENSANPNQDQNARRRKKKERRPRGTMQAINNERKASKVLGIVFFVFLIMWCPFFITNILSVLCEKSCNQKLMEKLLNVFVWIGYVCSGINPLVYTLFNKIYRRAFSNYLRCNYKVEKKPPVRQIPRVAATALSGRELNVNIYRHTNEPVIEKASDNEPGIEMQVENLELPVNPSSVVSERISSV
# [11] = biological target: T5, 5-hydroxytryptamine receptor 2A (Homo sapiens, UniProt P28223); assay: Binding affinity to human 5-HT2A transfected in HEK293 cells assessed as antagonist dissociation constant measured after 1 hrs; assay type: cell-based; conditions: filed as antagonist
# [12] = biological target: T5, 5-hydroxytryptamine receptor 2A; assay: Antagonist activity at 5-HT2A (unknown origin) transfected in HEK293 cells by FLIPR assay; assay type: functional, cell-based
# [13] = biological target: D(2) dopamine receptor (Homo sapiens, UniProt P14416); assay: Antagonist activity at D2R (unknown origin); assay type: functional
# [14] = biological target: D(1A) dopamine receptor (Homo sapiens, UniProt P21728); assay: Antagonist activity at D1R (unknown origin) transfected in HEK293 cells by FLIPR assay
# [15] = biological target: T6, 5-hydroxytryptamine receptor 2C (Homo sapiens, UniProt P28335); assay: Partial agonist activity at human 5-HT2C stably transfected in HEK293T cells measured after 18 to 24 hrs by FLIPR assay; assay type: functional, cell-based
# T6 sequence (P28335 whole entry): T4 sequence (whole entry)
# [16] = biological target: T4, 5-hydroxytryptamine receptor 2C (Homo sapiens); assay: Partial agonist activity at human 5-HT2C stably transfected in HEK293T cells measured after 18 to 24 hrs by FLIPR assay relative to control; assay type: functional, cell-based; conditions: filed as partial agonist, time 18-24 hrs
# [17] = system: SH-SY5Y; assay: Neuroprotective activity against human SH-SY5Y cells assessed as increase in BDNF level at 20 uM measured after 48 hrs relative to control; assay type: functional
# [18] = biological target: T6, 5-hydroxytryptamine receptor 2C; assay: Agonist activity at 5-HT2C (unknown origin); assay type: functional
# [19] = biological target: T4, 5-hydroxytryptamine receptor 2C (Homo sapiens); assay: Agonist activity at 5-HT2C (unknown origin) relative to control; assay type: functional; conditions: filed as agonist
# Chain of Cholinesterase (P81908 whole entry): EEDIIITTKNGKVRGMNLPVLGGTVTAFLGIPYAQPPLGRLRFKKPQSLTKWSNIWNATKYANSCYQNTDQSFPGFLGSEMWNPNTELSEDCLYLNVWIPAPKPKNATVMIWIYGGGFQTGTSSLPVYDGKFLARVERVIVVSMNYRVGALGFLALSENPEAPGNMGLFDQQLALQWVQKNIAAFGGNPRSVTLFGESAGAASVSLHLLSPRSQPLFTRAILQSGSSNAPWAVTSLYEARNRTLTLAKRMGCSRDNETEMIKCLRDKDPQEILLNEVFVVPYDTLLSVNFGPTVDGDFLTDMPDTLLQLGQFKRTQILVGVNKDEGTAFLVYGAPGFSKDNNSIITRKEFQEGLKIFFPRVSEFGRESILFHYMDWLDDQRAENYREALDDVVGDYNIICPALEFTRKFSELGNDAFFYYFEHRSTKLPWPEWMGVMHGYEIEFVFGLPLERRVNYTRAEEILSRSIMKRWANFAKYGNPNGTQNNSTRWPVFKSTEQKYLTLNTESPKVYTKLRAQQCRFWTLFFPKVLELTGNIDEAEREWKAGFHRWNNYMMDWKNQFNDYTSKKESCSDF
# Chain of Acetylcholinesterase (O42275 whole entry): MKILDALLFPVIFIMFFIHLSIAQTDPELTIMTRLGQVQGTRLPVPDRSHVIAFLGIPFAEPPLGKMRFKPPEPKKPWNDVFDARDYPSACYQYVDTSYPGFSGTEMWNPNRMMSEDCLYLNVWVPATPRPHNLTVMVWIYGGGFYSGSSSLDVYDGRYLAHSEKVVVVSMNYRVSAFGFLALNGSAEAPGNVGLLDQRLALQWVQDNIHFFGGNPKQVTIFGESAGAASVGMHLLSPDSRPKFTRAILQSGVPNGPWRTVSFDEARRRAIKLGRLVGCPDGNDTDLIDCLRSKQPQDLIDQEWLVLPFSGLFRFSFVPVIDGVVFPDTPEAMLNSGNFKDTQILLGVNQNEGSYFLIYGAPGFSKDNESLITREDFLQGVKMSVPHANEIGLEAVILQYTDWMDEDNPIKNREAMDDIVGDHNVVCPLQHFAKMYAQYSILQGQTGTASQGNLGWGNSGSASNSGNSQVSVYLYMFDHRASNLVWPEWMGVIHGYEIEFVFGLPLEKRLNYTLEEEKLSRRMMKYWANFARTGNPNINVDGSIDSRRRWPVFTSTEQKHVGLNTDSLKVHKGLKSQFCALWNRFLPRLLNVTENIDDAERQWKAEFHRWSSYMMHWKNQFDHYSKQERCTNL
# Chain of D(2) dopamine receptor (P14416 whole entry): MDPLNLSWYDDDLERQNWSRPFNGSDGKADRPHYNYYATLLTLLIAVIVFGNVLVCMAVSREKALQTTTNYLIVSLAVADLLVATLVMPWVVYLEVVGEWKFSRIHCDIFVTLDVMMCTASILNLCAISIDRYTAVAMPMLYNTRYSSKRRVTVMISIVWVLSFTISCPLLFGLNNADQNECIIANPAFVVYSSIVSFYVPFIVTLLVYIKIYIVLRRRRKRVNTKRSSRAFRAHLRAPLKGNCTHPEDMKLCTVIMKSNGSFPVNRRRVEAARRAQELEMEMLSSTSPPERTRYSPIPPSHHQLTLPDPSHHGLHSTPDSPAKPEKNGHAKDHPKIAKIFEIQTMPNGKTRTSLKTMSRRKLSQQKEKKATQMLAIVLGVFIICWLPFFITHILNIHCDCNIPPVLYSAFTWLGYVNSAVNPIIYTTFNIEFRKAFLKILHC
# T5 sequence (P28223 whole entry): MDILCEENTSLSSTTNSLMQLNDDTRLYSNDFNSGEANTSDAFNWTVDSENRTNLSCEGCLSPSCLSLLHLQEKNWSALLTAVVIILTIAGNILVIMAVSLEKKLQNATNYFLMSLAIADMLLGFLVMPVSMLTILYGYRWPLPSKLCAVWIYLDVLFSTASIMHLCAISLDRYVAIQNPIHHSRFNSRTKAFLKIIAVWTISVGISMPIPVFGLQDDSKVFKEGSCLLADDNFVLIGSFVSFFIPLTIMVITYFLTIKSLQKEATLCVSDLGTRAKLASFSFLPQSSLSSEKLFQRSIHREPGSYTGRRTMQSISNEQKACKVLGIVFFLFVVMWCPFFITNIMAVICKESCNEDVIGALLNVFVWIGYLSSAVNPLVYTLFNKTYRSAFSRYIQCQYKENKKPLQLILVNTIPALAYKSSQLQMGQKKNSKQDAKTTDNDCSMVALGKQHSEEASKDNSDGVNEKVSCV
# Chain of D(1A) dopamine receptor (P21728 whole entry): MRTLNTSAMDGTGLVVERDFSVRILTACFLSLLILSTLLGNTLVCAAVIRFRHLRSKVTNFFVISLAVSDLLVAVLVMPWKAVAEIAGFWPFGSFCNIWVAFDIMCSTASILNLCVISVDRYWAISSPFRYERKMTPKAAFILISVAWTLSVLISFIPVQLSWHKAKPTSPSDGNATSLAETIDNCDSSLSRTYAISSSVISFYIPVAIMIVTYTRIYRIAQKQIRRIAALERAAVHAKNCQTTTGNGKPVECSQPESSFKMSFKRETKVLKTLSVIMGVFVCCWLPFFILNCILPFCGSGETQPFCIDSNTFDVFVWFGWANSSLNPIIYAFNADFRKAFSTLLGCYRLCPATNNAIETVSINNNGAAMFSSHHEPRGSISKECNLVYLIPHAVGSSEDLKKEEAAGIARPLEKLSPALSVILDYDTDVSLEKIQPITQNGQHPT
# Chain of 5-hydroxytryptamine receptor 2B (P41595 whole entry): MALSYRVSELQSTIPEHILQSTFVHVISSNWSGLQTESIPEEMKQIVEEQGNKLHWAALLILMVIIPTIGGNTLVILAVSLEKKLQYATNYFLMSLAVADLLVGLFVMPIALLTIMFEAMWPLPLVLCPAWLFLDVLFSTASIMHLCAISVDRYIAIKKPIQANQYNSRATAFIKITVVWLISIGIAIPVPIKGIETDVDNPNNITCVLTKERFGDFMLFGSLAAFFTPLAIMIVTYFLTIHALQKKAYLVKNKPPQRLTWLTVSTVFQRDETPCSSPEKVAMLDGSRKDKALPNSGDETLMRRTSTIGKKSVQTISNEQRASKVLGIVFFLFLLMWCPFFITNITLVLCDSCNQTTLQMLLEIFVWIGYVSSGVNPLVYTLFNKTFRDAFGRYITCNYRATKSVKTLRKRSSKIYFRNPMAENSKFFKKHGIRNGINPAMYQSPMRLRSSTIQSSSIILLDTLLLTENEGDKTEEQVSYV
smiles,measurement,setting,value
COc1ccc2c(c1OC)C[C@@H]1c3c(cc4c(c3-2)OCO4)CCN1C,IC50,[1],17.4 µM
same,IC50,[2],5.26 µM
same,IC50,[3],10.5 µM
same,Ratio IC50,[4],3
same,IC50,[5],5.26 µM
CN1CCc2cc3c(c4c2[C@H]1[C@H](O)c1ccccc1-4)OCO3,IC50,[1],7.42 µM
same,IC50,[3],17.6 µM
COc1cc2c(cc1OC)-c1c3c(cc4c1[C@H](C2)N(C)CC4)OCO3 [DICENTRINE],IC50,[1],26.4 µM
same,Kb,[6],0.163 µM
same,Kb,[7],0.208 µM
same,Kb,[8],0.155 µM
same,Kb,[9],0.181 µM
same,IC50,[3],6.11 µM
same,Kb,[10],0.776 µM
same,Kb,[11],0.0839 µM
COc1c(O)cc2c3c1-c1ccccc1CC3N(C)CC2 (configuration not stated),IC50,[12],19.6 µM
COc1cccc2c1C[C@@H]1c3c(cc4c(c3-2)OCO4)CCN1C [STEPHANINE],IC50,[1],2.8 µM
same,IC50,[2],20.3 µM
same,IC50,[3],11.3 µM
same,IC50,[13],0.85 µM
same,Ratio IC50,[4],~4
COc1cccc2c1[C@@H](O)[C@@H]1c3c(cc4c(c3-2)OCO4)CCN1C,IC50,[1],5.87 µM
same,IC50,[3],6.12 µM
COc1c(O)cc2c3c1-c1ccccc1CC3NCC2 (configuration not stated),IC50,[14],7.2 µM
COc1ccc(OC)c2c1C[C@@H]1c3c(cc4c(c3-2)OCO4)CCN1C,IC50,[13],18.3 µM
CN(C)c1ccc(O)c2c1C[C@H]1C[C@H]3[C@H](N(C)C)C(O)=C(C(N)=O)C(=O)[C@@]3(O)C(O)=C1C2=O [MINOCYCLINE],IC50,[2],15.5 µM
COc1cc2c3c(c1OC)-c1ccccc1CC3NCC2 (configuration not stated) [NORNUCIFERINE],IC50,[14],38.5 µM
same,EC50,[15],0.308 µM
same,Emax,[16],65.6%
COc1ccc2c(c1OC)[C@@H](O)[C@@H]1c3c(cc4c(c3-2)OCO4)CCN1C,IC50,[1],22.5 µM
same,IC50,[3],4.3 µM
CN1CCc2cc3c(c4c2[C@H]1Cc1ccccc1-4)OCO3,IC50,[1],2.8 µM
same,Activity,[17],73%
same,IC50,[3],8.32 µM
same,IC50,[13],18.8 µM
Oc1cc2c3c(c1Cl)-c1ccccc1C[C@H]3NCC2,EC50,[18],0.304 µM
same,Emax,[19],41.6%
